# Test results from patent EP2276483B1, “SOLID FORMS COMPRISING (+)-2-[1-(3-ETHOXY-4-METHOXYPHENYL)-2-METHYLSULFONYLETHYL]-4-ACETYLAMINOISOINDOLINE-1,3-DIONE, COMPOSITIONS THEREOF, AND USES THEREOF” (CELGENE CORPORATION, priority 2008, dated 2009).
# Read-outs that look alike come from different tables or passages of the source.
# Assays:
# [1] = Stability Studies of solid forms; type: physicochemical
# Method: Stability Studies. The stabilities of Forms A, B, C and D were studied by exposing the solid samples to the stress condition of 40 °C / 75% RH for four weeks. Moreover, the stabilities of Forms A, B, C and D in different solvents were studied by equilibration in different solvents at 40 °C for four weeks. The slurries then were filtered and dried in the air. Solid samples obtained from the stability experiments were analyzed by XRPD and DSC.
# [2] = Interconversion Studies of solid forms; type: physicochemical; conditions: EQ in acetone:ethanol (1:1) at 25 °C; slurry agitated at least 2 days
# Method: Interconversion Studies. Interconversion experiments were performed by making slurries of a solid form in a saturated solvent. The slurries were agitated for at least 2 days at about 25 °C. The saturated solution was removed by filtration and the solid was dried in the air.
# [3] = Hygroscopicity studies (DVS moisture sorption/desorption); type: physicochemical; conditions: for mass change of the starting mass of the sample (moisture sorption): RH increased from about 0% to about 95% RH; for solid-state transformation as a result of DVS analysis (XRPD): after full adsorption/desorption cycle, about 0% to about 95% RH, about 25 °C
# Method: Hygroscopicity studies. The hygroscopicity of various solid forms was studied using a Surface Measurement Systems DVS instrument. Typically a sample size of between about 10-50 mg was loaded into the DVS instrument sample pan and the sample was analyzed on a DVS automated sorption analyzer at about 25 °C. The relative humidity was increased in increments of about 10% from about 0% to about 95% RH: The relative humidity was then decreased in a similar manner to accomplish a full adsorption/desorption cycle. The mass was recorded at periodic intervals throughout the experiment.
# Hygroscopicity Studies. […] Table 6. Solubility Study on Form B
# [4] = Compression Studies of solid forms; conditions: 2000 psi force for at least one minute
# [5] = Solubility Studies in solvents; type: physicochemical; conditions: 25 °C, thermodynamic from solid, about 25 °C, read-out: Approximate Solubility
# Method: Solubility Studies. A weighed sample of Compound A (about 100 mg) was treated with about 2 mL of the test solvent. The solvents used were either reagent or HPLC grade. The resulting mixture was agitated for at least 24 hours at about 25 °C. When all of the solids were dissolved by visual inspection, the estimated solubilities were calculated. The solubilities were estimated from these experiments based on the total volume of solvent used to give a solution. The actual solubilities may be greater than those calculated due to the use of large amount of solvent or to a slow rate of dissolution. […] A known volume of filtrate was evaporated to dryness and the weight of the residue was measured.
# Solubility Studies. […] Form B was also found to have low solubility in several solvents including n-butanol, heptane, 2-propanol, toluene and water (less than about 1 mg/mL).
# [6] = EQ in ethanol at 40 °C for 4 weeks
# [7] = EQ in heptane at 40 °C for 4 weeks
# [8] = EQ in toluene at 40 °C for 4 weeks
# [9] = EQ in water at 40 °C for 4 weeks
SMILES,"Analysis by XRPD (resulting form) ([1]; 40 °C / 75% RH, 4 weeks)","Appearance ([1]; 40 °C / 75% RH, 4 weeks)","Analysis by XRPD (resulting form) [1, 6]","Analysis by XRPD (resulting form) [1, 7]","Analysis by XRPD (resulting form) [1, 8]","Analysis by XRPD (resulting form) [1, 9]",Analysis by XRPD (resulting form) [2],mass change of the starting mass of the sample (moisture sorption) [3],solid-state transformation as a result of DVS analysis (XRPD) [3],physical stability upon compression by XRPD analysis [4],other results
"CCOc1cc(C(CS(C)(=O)=O)N2C(=O)c3cccc(NC(C)=O)c3C2=O)ccc1OC (single isomer, unassigned; (+)) [Form A, (+)-2-[1-(3-ethoxy-4-methoxyphenyl)-2-methylsulfonylethyl]-4-acetylaminoisoindoline-1,3-dione]",Form A,White solid,Form F,Form A,Form C,Form A,Form B,about 0.4%,none of the forms analyzed underwent substantial solid-state transformation,substantially physically stable,
"CCOc1cc(C(CS(C)(=O)=O)N2C(=O)c3cccc(NC(C)=O)c3C2=O)ccc1OC (single isomer, unassigned; (+)) [Form B, (+)-2-[1-(3-ethoxy-4-methoxyphenyl)-2-methylsulfonylethyl]-4-acetylaminoisoindoline-1,3-dione]",Form B,White solid,Form B,Form B,Form B,Form B,,about 0.6%,none of the forms analyzed underwent substantial solid-state transformation,substantially physically stable,"solubility ([5]; 2-propanol, organic solvent or mixture, 2-Propanol): < 1000 µg/mL; solubility ([5]; absolute ethanol, organic solvent or mixture, Absolute ethanol): 1380 µg/mL; solubility ([5]; acetone, organic solvent or mixture, Acetone): > 50000 µg/mL; solubility ([5]; acetonitrile, organic solvent or mixture, Acetonitrile): > 50000 µg/mL; solubility ([5]; ethanol:water (1:1), aqueous with cosolvent or surfactant or cyclodextrin, Ethanol: Water (1:1)): 2860 µg/mL; solubility ([5]; ethyl acetate, organic solvent or mixture, Ethyl acetate): ~30200 µg/mL; solubility ([5]; methanol, organic solvent or mixture, Methanol): 4050 µg/mL; solubility ([5]; methyl ethyl ketone, organic solvent or mixture, Methyl ethyl ketone): > 50000 µg/mL; solubility ([5]; methyl t-butyl ether, organic solvent or mixture, Methyl t-butyl ether): 1170 µg/mL; solubility ([5]; methylene chloride, organic solvent or mixture, Methylene chloride): > 50000 µg/mL; solubility ([5]; n-butanol, organic solvent or mixture, n-Butanol): < 1000 µg/mL; solubility ([5]; n-butyl acetate, organic solvent or mixture, n-Butyl acetate): 9750 µg/mL; solubility ([5]; tetrahydrofuran, organic solvent or mixture, Tetrahydrofuran): > 50000 µg/mL; solubility ([5]; toluene, organic solvent or mixture, Toluene): < 1000 µg/mL; solubility ([5]; water, water, Water): < 1000 µg/mL"
"CCOc1cc(C(CS(C)(=O)=O)N2C(=O)c3cccc(NC(C)=O)c3C2=O)ccc1OC (single isomer, unassigned; (+)) [Form C, (+)-2-[1-(3-ethoxy-4-methoxyphenyl)-2-methylsulfonylethyl]-4-acetylaminoisoindoline-1,3-dione]",Form C,Yellow solid,Form C,Form C,Form C,Form C,Form C,about 0.5%,none of the forms analyzed underwent substantial solid-state transformation,substantially physically stable,
"CCOc1cc(C(CS(C)(=O)=O)N2C(=O)c3cccc(NC(C)=O)c3C2=O)ccc1OC (single isomer, unassigned; (+)) [Form D, (+)-2-[1-(3-ethoxy-4-methoxyphenyl)-2-methylsulfonylethyl]-4-acetylaminoisoindoline-1,3-dione]",Form D,White solid,Form B,Form B,Form C,Form B,Form B,about 1.5%,none of the forms analyzed underwent substantial solid-state transformation,substantially physically stable,
"CCOc1cc(C(CS(C)(=O)=O)N2C(=O)c3cccc(NC(C)=O)c3C2=O)ccc1OC (single isomer, unassigned; (+)) [Form E, (+)-2-[1-(3-ethoxy-4-methoxyphenyl)-2-methylsulfonylethyl]-4-acetylaminoisoindoline-1,3-dione]",,,,,,,Form B,about 5.1%,none of the forms analyzed underwent substantial solid-state transformation,,
"CCOc1cc(C(CS(C)(=O)=O)N2C(=O)c3cccc(NC(C)=O)c3C2=O)ccc1OC (single isomer, unassigned; (+)) [Form F, (+)-2-[1-(3-ethoxy-4-methoxyphenyl)-2-methylsulfonylethyl]-4-acetylaminoisoindoline-1,3-dione]",,,,,,,Form F,about 0.2%,none of the forms analyzed underwent substantial solid-state transformation,,
"CCOc1cc(C(CS(C)(=O)=O)N2C(=O)c3cccc(NC(C)=O)c3C2=O)ccc1OC (single isomer, unassigned; (+)) [Form G, (+)-2-[1-(3-ethoxy-4-methoxyphenyl)-2-methylsulfonylethyl]-4-acetylaminoisoindoline-1,3-dione]",,,,,,,Form B,about 0.4%,none of the forms analyzed underwent substantial solid-state transformation,,
